In ChEMBL document CHEMBL4354818, “Advances in Discovering Deubiquitinating Enzyme (DUB) Inhibitors” (J Med Chem, 2020):

Key:
[1] = target: T1, STAM-binding protein (Homo sapiens, UniProt O95630); test: Inhibition of human STAMBP expressed in Sf21 cells pre-incubated for 20 mins before Ubiquitinated NALP7 substrate addition and measured after 1 hr by immunoblotting analysis
T1 sequence (O95630 whole entry): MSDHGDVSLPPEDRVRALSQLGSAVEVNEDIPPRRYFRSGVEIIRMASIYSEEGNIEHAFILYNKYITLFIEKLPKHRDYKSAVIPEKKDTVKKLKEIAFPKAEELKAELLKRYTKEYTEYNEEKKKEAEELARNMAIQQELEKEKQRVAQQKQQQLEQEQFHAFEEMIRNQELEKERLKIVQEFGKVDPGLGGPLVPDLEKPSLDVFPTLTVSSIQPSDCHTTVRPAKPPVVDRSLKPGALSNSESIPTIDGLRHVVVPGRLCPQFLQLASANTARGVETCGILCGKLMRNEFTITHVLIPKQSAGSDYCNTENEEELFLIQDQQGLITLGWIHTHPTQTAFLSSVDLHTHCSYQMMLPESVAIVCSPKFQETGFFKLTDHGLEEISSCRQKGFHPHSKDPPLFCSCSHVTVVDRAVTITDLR

[2] = target: Ubiquitin carboxyl-terminal hydrolase 7 (Homo sapiens, UniProt Q93009); test: Inhibition of USP7 in human U2OS using Ub-TAMRA substrate by Ub-Rhodamine fluorescent intensity assay; type: cell-based
[3] = target: T2, Ubiquitin carboxyl-terminal hydrolase 4 (Homo sapiens, UniProt Q13107); test: Inhibition of USP4 in human U2OS using Ub-TAMRA substrate by Ub-Rhodamine fluorescent intensity assay; type: cell-based
T2 sequence (Q13107 whole entry): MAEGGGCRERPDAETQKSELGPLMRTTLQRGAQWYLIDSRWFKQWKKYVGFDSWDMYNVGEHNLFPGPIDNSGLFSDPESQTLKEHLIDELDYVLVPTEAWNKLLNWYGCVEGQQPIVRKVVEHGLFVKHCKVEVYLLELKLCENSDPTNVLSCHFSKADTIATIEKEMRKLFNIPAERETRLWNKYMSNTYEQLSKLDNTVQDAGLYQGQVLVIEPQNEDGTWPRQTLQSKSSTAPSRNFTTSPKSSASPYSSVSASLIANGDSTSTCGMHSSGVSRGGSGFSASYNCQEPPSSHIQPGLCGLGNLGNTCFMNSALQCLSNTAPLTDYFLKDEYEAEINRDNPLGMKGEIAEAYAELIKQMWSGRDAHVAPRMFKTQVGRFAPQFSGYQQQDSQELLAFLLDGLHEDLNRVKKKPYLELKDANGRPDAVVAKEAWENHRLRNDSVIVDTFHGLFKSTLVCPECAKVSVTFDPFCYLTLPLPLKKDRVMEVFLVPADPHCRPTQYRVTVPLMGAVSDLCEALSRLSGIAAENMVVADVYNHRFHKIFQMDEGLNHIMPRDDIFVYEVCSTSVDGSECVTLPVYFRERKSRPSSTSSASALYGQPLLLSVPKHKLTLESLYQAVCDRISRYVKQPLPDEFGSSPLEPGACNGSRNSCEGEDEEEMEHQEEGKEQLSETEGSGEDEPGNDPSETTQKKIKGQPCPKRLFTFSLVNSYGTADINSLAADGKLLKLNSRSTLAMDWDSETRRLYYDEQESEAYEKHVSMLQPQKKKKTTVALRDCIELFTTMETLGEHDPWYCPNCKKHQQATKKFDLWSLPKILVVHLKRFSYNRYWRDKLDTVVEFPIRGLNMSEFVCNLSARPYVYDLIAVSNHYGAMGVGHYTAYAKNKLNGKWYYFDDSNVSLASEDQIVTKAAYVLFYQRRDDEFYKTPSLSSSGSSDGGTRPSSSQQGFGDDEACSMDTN

[4] = test system: HCT-116; test: Cytotoxicity in human HCT116 cells assessed as reduction in cell viability incubated for 72 hrs by FMCA analysis; type: functional, cell-based; details: HCT-116, 72 h
[5] = Inhibition of 26S proteasome (unknown origin) incubated for 2 hrs by proteasome Ub-Rho cleavage assay; parameters: species or system Homo sapiens

Sequence of Ubiquitin carboxyl-terminal hydrolase 7 (Q93009 whole entry): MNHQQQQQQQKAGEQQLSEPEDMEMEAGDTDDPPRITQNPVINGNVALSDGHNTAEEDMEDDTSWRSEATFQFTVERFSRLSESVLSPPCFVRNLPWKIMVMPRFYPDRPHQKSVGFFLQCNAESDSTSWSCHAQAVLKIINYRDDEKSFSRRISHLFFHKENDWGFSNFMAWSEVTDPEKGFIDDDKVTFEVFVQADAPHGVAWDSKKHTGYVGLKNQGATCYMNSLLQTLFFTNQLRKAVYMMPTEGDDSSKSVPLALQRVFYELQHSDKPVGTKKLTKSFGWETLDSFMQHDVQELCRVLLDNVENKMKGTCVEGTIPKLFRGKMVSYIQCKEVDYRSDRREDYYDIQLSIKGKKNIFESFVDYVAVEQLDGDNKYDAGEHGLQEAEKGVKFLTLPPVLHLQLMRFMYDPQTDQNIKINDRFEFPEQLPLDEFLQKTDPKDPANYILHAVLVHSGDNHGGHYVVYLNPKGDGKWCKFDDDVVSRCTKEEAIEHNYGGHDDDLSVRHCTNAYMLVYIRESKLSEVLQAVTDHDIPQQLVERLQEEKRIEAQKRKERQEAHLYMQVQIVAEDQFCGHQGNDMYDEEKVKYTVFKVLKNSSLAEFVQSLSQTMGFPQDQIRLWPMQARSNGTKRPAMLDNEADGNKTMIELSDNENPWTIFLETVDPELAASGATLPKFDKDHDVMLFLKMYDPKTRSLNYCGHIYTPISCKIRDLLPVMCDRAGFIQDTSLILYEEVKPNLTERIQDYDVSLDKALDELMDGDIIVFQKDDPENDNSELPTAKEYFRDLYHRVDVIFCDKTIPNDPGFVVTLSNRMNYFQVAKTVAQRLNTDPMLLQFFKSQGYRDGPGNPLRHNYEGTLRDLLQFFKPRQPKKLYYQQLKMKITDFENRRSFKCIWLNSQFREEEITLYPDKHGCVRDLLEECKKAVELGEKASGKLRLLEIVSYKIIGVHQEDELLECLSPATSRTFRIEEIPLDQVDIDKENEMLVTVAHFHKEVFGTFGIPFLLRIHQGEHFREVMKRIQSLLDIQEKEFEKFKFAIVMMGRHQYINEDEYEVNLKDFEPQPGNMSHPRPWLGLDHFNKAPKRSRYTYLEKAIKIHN

IC50 [1]	IC50 [2]	IC50 [3]	SMILES	EC50 [4]	EC50 [5]
330 nM	–	–	O=C(CSc1nc2ccc(N3CCOCC3)cc2c(=O)n1CCc1ccccc1)NCc1ccco1	–	–
–	44000 nM	50 nM	C#Cc1ccc(CNC(=O)c2cc(C(=O)CCl)cn2C)cc1	–	–
–	–	–	C=CC(=O)N1CC/C(=C\c2ccc(F)c([N+](=O)[O-])c2)C(=O)/C(=C/c2ccc(F)c([N+](=O)[O-])c2)C1	580 nM	6400 nM
–	–	–	C=CC(=O)N1C/C(=C\c2ccc([N+](=O)[O-])cc2)C(=O)/C(=C/c2ccc([N+](=O)[O-])cc2)C1	1050 nM	6500 nM
